In patent US9884806B2, “Cyclic vinylogous amides as bromodomain inhibitors” (ICAHN SCHOOL OF MEDICINE AT MOUNT SINAI, priority 2013, dated 2018):

Legend:
BRD4_2 = molecular target: T1, BRD4_2 (Homo sapiens, UniProt O60885); assay: Fluorescence anisotropy binding assay (competition with FITC-labeled MS417 probe), BRD4_2; conditions: FITC-MS417 probe 80 nM, PBS pH 7.4, 1 hour, 25° C.
T1 construct: contains two tandem bromodomains (BrD1 and BrD2)

[1] = molecular target: T2, first bromodomain (BrD1) of human BRD4 (Homo sapiens, UniProt O60885); assay: Fluorescence anisotropy binding assay (competition with FITC-labeled MS417 probe); conditions: FITC-MS417 probe 80 nM, PBS pH 7.4, 1 hour, 25° C., read-out: BRD4_1 IC50
T2 construct: the first bromodomain (BrD1) of human BRD4; poly-His (cleaved yes); made in house
Experimental: Fluorescence Anisotropy Binding Assay
Expression and purification of the first bromodomain (BrD1) of human BRD4 in poly-His tag form was performed using a procedure described in the literature [See Zeng et al. Structure 16, 643-652 (2008) and Zhang et al., J Biol Chem 287, 28840-28851 (2012).] The protein was purified by using affinity chromatography on a nickel-IDA column (Invitrogen), followed by the removal of poly-His tag by thrombin cleavage.
Binding affinity of the newly synthesized compounds to the BRD4 BrD1 was assessed in a fluorescence anisotropy assay using a fluorescein isothiocyanate (FITC)-labeled MS417 as an assay probe (Zhang et al. 2008 op.cit.). Competition binding was performed with a BrD protein (0.25 to 1 μM) and the fluorescent probe (80 nM), and increasing concentration of unlabeled competing ligand in a PBS buffer (pH 7.4) in total volume of 80 μL. Measurements were obtained after 1 hour incubation of the fluorescent ligand and the protein at 25° C. with Safire 2 microplate reader (Tecan). In the assay, fluorescent ligand concentration was ≦2Kd, and protein concentration was set at which 50-80% of fluorescent ligand is bound. Dissociation constant of a competing ligand was calculated with the correction to Cheng-Prussoff equation introduced by Nicolovska-Coleska and colleagues [Nikolovska-Coleska, Z. et al., Anal Biochem 332, 261-273 (2004). Assuming one-site competitive binding model, the equation used to calculate Ki's from IC50 values recovered from fitting data using Prism:
[formula] where [I50] is the concentration of free inhibitor at 50% inhibition, [L50], the concentration of free labeled ligand at 50% inhibition, and [P0], concentration of free protein at 0% inhibition. Note that Kd for each protein-probe pair is the limit of resolvable Ki in a competition assay.

COC(=O)c1ccc(NC2=CC(=O)CC2)cc1 [Example 01-1]
IC50 (BRD4_2): 1 to 10 µM
IC50 [1]: 1 to 10 µM

NC(=O)c1ccc(NC2=CC(=O)CC2)cc1 [Example 01-2]
IC50 (BRD4_2): 1 to 10 µM
IC50 [1]: 1 to 10 µM

CC1=C(Nc2cccc(C(=O)O)c2)CCC1=O [Example 01-3]
IC50 (BRD4_2): 1 to 10 µM
IC50 [1]: > 10 µM

COC(=O)c1cccc(NC2=C(C)C(=O)CC2)c1 [Example 01-4]
IC50 (BRD4_2): > 10 µM
IC50 [1]: 1 to 10 µM

CC1=C(Nc2ccc(S(N)(=O)=O)cc2)CCC1=O [Example 01-6]
IC50 (BRD4_2): > 10 µM
IC50 [1]: > 10 µM

CC1=C(Nc2ccc(C#N)cc2)CCC1=O [Example 01-7]
IC50 (BRD4_2): > 10 µM
IC50 [1]: > 10 µM

CC(=O)c1ccc(NC2=C(C)C(=O)CC2)cc1 [Example 01-9]
IC50 (BRD4_2): > 10 µM
IC50 [1]: 1 to 10 µM

COC(=O)c1ccc(NC2=C(C)C(=O)CC2)c(Cl)c1 [Example 01-11, methyl 3-chloro-4((2-methyl-3-oxocyclopent-1-en-1-yl)amino)benzoate]
IC50 (BRD4_2): 1 to 10 µM
IC50 [1]: 1 to 10 µM

COC(=O)c1ccccc1NC1=C(C)C(=O)CC1 [Example 01-19, methyl 2-((2-methyl-3-oxocyclopent-1-en-1-yl)amino)benzoate]
IC50 (BRD4_2): > 10 µM
IC50 [1]: > 10 µM

CC1=C(Nc2ccc(S(=O)(=O)Nc3ccccn3)cc2)CCC1=O [Example 01-31, 4-((2-methyl-3-oxocyclopent-1-en-1-yl)amino)-N-(pyridin-2-yl)benzenesulfonamide]
IC50 (BRD4_2): 1 to 10 µM
IC50 [1]: 1 to 10 µM

CC1=C(NC2CCN(C(=O)OC(C)(C)C)CC2)CCC1=O [Example 01-32, tert-Butyl 4-((2-methyl-3-oxocyclopent-1-en-1-yl)amino)piperidine-1-carboxylate]
IC50 (BRD4_2): > 10 µM
IC50 [1]: > 10 µM

CC1=C(N[C@H]2CC[C@H](C(=O)O)CC2)CCC1=O [Example 01-33, trans-(1R,4R)-4-((2-methyl-3-oxocyclopent-1-en-1-yl)amino)cyclo6hexane-carboxylic acid]
IC50 (BRD4_2): > 10 µM
IC50 [1]: > 10 µM

CC1=C(N[C@H]2CC[C@@H](C(=O)O)CC2)CCC1=O [Example 01-34, cis-(1S,4S)-4-((2-methyl-3-oxocyclopent-1-en-1-yl)amino)cyclohexanecarboxylic acid]
IC50 (BRD4_2): > 10 µM
IC50 [1]: > 10 µM

CC1=C(Nc2cccc(S(N)(=O)=O)c2)CCC1=O [Example 01-45, 3((2-methyl-3-oxocyclopent-1-en-1-yl)amino)benzenesulfonamide]
IC50 (BRD4_2): 1 to 10 µM
IC50 [1]: 1 to 10 µM

CC1=C(Nc2cc(S(N)(=O)=O)ccc2Cl)CCC1=O [Example 01-46, 4-chloro-3-((2-methyl-3-oxocyclopent-1-en-1-yl)amino)benzene-sulfonamide]
IC50 (BRD4_2): 1 to 10 µM
IC50 [1]: 1 to 10 µM

CC1=C(Nc2cccc(N)c2Cl)CCCC1=O [Example 02-11, 3-((3-amino-2-chlorophenyl)amino)-2-methylcyclohex-2-enone]
IC50 (BRD4_2): > 10 µM
IC50 [1]: 1 to 10 µM

CC1=C(Nc2ccc(N)cc2Cl)CCC1=O [Example 02-14, 3-((4-amino-2-chlorophenyl)amino)-2-methylcyclopent-2-enone]
IC50 (BRD4_2): 1 to 10 µM
IC50 [1]: 1 to 10 µM

CC1=C(Nc2ccc(C(=O)Nc3ccccc3)cc2)CCC1=O [Example 03-1]
IC50 (BRD4_2): 1 to 10 µM
IC50 [1]: 1 to 10 µM

CC1=C(Nc2ccc(C(=O)N(C)c3ccccc3)cc2)CCC1=O [Example 03-2]
IC50 (BRD4_2): > 10 µM
IC50 [1]: > 10 µM

COc1ccc(NC(=O)c2ccc(NC3=C(C)C(=O)CC3)cc2)cc1 [Example 03-6]
IC50 (BRD4_2): 1 to 10 µM
IC50 [1]: 1 to 10 µM

CC1=C(Nc2ccc(C(=O)Nc3ccc(C)cc3)cc2)CCC1=O [Example 03-7]
IC50 (BRD4_2): 1 to 10 µM
IC50 [1]: 1 to 10 µM

CC1=C(Nc2ccc(C(=O)Nc3cccc(C)c3)cc2)CCC1=O [Example 03-9]
IC50 (BRD4_2): 1 to 10 µM
IC50 [1]: 1 to 10 µM

COc1ccccc1NC(=O)c1ccc(NC2=C(C)C(=O)CC2)cc1 [Example 03-10, N-(2-methoxyphenyl)-4-((2-methyl-3-oxocyclopent-1-en-1-yl)amino)benzamide]
IC50 (BRD4_2): 1 to 10 µM
IC50 [1]: 1 to 10 µM

COc1cccc(NC(=O)c2ccc(NC3=C(C)C(=O)CC3)cc2)c1 [Example 03-11, N-(3-methoxyphenyl)-4-((2-methyl-3-oxocyclopent-1-en-1-yl)amino)benzamide]
IC50 (BRD4_2): > 10 µM
IC50 [1]: 1 to 10 µM

CC1=C(Nc2ccc(C(=O)Nc3cccc4ccccc34)cc2)CCC1=O [Example 03-16, 4-((2-methyl-3-oxocyclopent-1-en-1-yl)amino)-N-(naphthalen-1-yl)benzamide]
IC50 (BRD4_2): 1 to 10 µM
IC50 [1]: 1 to 10 µM

CC1=C(Nc2ccc(C(=O)NCc3ccccc3)cc2)CCC1=O [Example 03-18, N-benzyl-4-((2-methyl-3-oxocyclopent-1-en-1-yl)amino)benzamide]
IC50 (BRD4_2): 1 to 10 µM
IC50 [1]: 1 to 10 µM

CC1=C(Nc2ccc(C(=O)NC3CCCCC3)cc2)CCC1=O [Example 03-19, N-cyclohexyl-4-((2-methyl-3-oxocyclopent-1-en-1-yl)amino)benzamide]
IC50 (BRD4_2): 1 to 10 µM
IC50 [1]: 1 to 10 µM

CC1=C(Nc2ccc(C(=O)N(C)C)cc2)CCC1=O [Example 03-20, N,N-dimethyl-4-((2-methyl-3-oxocyclopent-1-en-1-yl)amino)benzamide]
IC50 (BRD4_2): > 10 µM
IC50 [1]: > 10 µM

CC1=C(Nc2cccc(C(=O)Nc3ccccc3)c2)CCC1=O [Example 03-23, 3((2-methyl-3-oxocyclopent-1-en-1-yl)amino)-N-phenylbenzamide]
IC50 (BRD4_2): 1 to 10 µM
IC50 [1]: 1 to 10 µM

CC1=C(Nc2cccc(C(=O)NC3CCCCC3)c2)CCC1=O [Example 04-1]
IC50 (BRD4_2): 1 to 10 µM
IC50 [1]: 1 to 10 µM

CC1=C(Nc2cccc(C(=O)Nc3cccc4ccccc34)c2)CCC1=O [Example 04-2]
IC50 (BRD4_2): 1 to 10 µM
IC50 [1]: 1 to 10 µM

CC1=C(Nc2cccc(C(=O)Nc3ccncc3)c2)CCC1=O [Example 04-3]
IC50 (BRD4_2): > 10 µM
IC50 [1]: 1 to 10 µM

COc1ccc(NC(=O)c2cccc(NC3=C(C)C(=O)CC3)c2)cc1 [Example 04-4]
IC50 (BRD4_2): 1 to 10 µM
IC50 [1]: 1 to 10 µM

CC1=C(Nc2cccc(C(=O)Nc3ccccc3C)c2)CCC1=O [Example 04-5]
IC50 (BRD4_2): 1 to 10 µM
IC50 [1]: 1 to 10 µM

CC1=C(Nc2cccc(C(=O)Nc3cccc(C)c3)c2)CCC1=O [Example 04-6]
IC50 (BRD4_2): > 10 µM
IC50 [1]: 1 to 10 µM

CC1=C(Nc2cccc(C(=O)Nc3ccc(C)cc3)c2)CCC1=O [Example 04-7]
IC50 (BRD4_2): > 10 µM
IC50 [1]: 1 to 10 µM

CC1=C(Nc2cccc(C(=O)Nc3ccccc3F)c2)CCC1=O [Example 04-8]
IC50 (BRD4_2): 1 to 10 µM
IC50 [1]: 1 to 10 µM

CNC(=O)c1ccc(NC2=C(C)C(=O)CC2)c(Cl)c1 [Example 04-13, 3-chloro-N-methyl-4-((2-methyl-3-oxocyclopent-1-en-1-yl)amino)benzamide]
IC50 (BRD4_2): 1 to 10 µM
IC50 [1]: 1 to 10 µM

CC1=C(Nc2ccc(C(=O)NC3CCCCC3)cc2Cl)CCC1=O [Example 04-14, 3-chloro-N-cyclohexyl-4-((2-methyl-3-oxocyclopent-1-en-1-yl)amino)benzamide]
IC50 (BRD4_2): 1 to 10 µM
IC50 [1]: < 1 µM

CC1=C(Nc2ccc(C(=O)Nc3ccccc3)cc2Cl)CCC1=O [Example 04-16, 3-chloro-4-((2-methyl-3-oxocyclopent-1-en-1-yl)amino)-N-phenylbenzamide]
IC50 (BRD4_2): 1 to 10 µM
IC50 [1]: 1 to 10 µM

COc1cccc(NC(=O)c2ccc(NC3=C(C)C(=O)CC3)c(Cl)c2)c1 [Example 04-18, 3-chloro-N-(3-methoxyphenyl)-4-((2-methyl-3-oxocyclopent-1-en-1-yl)amino)benzamide]
IC50 (BRD4_2): 1 to 10 µM
IC50 [1]: < 1 µM

CC1=C(Nc2ccc(C(=O)Nc3cccc(C)c3)cc2Cl)CCC1=O [Example 04-21, 3-chloro-4-((2-methyl-3-oxocyclopent-1-en-1-yl)amino)-N-(m-tolyl)benzamide]
IC50 (BRD4_2): 1 to 10 µM
IC50 [1]: < 1 µM

CC1=C(Nc2ccc(C(=O)Nc3ccc(C)cc3)cc2Cl)CCC1=O [Example 04-22, 3-chloro-4-((2-methyl-3-oxocyclopent-1-en-1-yl)amino)-N-(p-tolyl)benzamide]
IC50 (BRD4_2): 1 to 10 µM
IC50 [1]: 1 to 10 µM

CC1=C(N[C@H]2CC[C@H](C(=O)Nc3ccccc3)CC2)CCC1=O [Example 04-26, (1R,4R)-4-((2-methyl-3-oxocyclopent-1-en-1-yl)amino)-N-phenylcyclohexane-carboxamide]
IC50 (BRD4_2): > 10 µM
IC50 [1]: > 10 µM

CC1=C(N[C@H]2CC[C@H](C(=O)Nc3ccccc3C)CC2)CCC1=O [Example 04-30, (1R,4R)-4-((2-methyl-3-oxocyclopent-1-en-1-yl)amino)-N-(o-tolyl)cyclohexanecarboxamide]
IC50 (BRD4_2): > 10 µM
IC50 [1]: > 10 µM
